From patent publication US20260092074A1, “Annelated Pyridines as Steroidogenesis Inhibitors, Preparation Method and Use Thereof” (Guangzhou Vinnocent Pharmaceutical Limited, priority 2022, published 2026)
pIC50: −log10 of the molar value.

Assays:
human CYP11B1 = target: T1, human CYP11B1 (Homo sapiens, UniProt P15538); test: Inhibition of hCYP11B1 in transfected V79 cells; type: cell-based; conditions: hamster V79 cells expressing human CYP11B1; substrate 11-deoxycortisol 200 nM
T1 construct: expressed in transfected cells
T1 sequence (P15538 25-503): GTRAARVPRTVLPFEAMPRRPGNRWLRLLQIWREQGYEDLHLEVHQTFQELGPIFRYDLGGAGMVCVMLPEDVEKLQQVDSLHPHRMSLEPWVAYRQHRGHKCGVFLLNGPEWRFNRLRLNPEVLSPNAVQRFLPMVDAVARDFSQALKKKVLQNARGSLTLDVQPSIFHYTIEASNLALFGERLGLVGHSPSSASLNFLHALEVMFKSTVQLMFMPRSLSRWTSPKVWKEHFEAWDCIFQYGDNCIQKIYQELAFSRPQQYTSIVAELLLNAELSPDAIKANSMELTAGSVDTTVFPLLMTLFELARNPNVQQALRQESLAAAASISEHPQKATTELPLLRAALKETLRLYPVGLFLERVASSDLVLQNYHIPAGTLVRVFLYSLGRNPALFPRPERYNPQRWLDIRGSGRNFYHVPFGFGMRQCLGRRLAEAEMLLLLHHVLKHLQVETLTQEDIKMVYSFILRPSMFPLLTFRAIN
Outline: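 Reactions started with 200 nM 11-deoxycortisol, ran for 30 min and were stopped with ethyl acetate, after a 2 h compound preincubation. The host was stably transfected V79 hamster cells carrying human CYP11B1 plus rat P450 reductase. Percent inhibition, from LC-MS/MS or HPLC (260 nm) quantitation of substrate and product, gave the IC50.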

human CYP11B2 = target: T2, human CYP11B2 (Homo sapiens, UniProt P19099); test: Inhibition of hCYP11B2 in transfected V79 cells; type: cell-based; conditions: hamster V79 cells expressing human CYP11B2; substrate 11-deoxycorticosterone 200 nM
T2 construct: expressed in transfected cells
T2 sequence (P19099 25-503): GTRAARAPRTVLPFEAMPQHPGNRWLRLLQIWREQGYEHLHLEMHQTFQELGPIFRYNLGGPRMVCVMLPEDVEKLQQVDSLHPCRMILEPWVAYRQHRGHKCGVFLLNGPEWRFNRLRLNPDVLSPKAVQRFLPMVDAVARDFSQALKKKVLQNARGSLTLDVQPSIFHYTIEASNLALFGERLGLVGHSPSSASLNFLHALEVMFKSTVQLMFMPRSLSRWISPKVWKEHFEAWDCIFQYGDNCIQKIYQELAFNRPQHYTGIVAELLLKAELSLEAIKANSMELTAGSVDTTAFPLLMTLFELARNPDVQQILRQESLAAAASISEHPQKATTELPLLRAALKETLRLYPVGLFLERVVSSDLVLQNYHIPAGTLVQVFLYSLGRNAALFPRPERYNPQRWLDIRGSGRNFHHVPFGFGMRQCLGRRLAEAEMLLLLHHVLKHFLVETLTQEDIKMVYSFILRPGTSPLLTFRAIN
Outline: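 The substrate (200 nM, 30 min) was added after a 2 hour compound pre-incubation in lentivirus-transduced V79 cells stably expressing human CYP11B2 plus rat NADPH-P450 reductase.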

N#Cc1ccc(-c2cncc3c2ccn3C(=O)c2ccc(F)cc2)cc1 [E30, 4-(1-(4-Fluorobenzoyl)-1H-pyrrolo[2,3-c]pyridin-4-yl)benzonitrile]
pIC50 (human CYP11B1): 7.96 | pIC50 (human CYP11B2): 10.00

O=C(c1ccccc1F)N1CCc2c(-c3ccoc3)cncc21 [C56, (2-Fluorophenyl)(4-(furan-3-yl)-2,3-dihydro-1H-pyrrolo[2,3-c]pyridin-1-yl)methanone]
pIC50 (human CYP11B1): 6.28 | pIC50 (human CYP11B2): 6.99

N#Cc1ccc(-c2cncc3c2OCCN3C(=O)Cc2cccc(Cl)c2)cc1 [O39, 4-(4-(2-(3-Chlorophenyl)acetyl)-3,4-dihydro-2H-pyrido[4,3-b][1,4]oxazin-8-yl)benzonitrile]
pIC50 (human CYP11B1): 6.85 | pIC50 (human CYP11B2): 8.59

CCC(=O)N[C@@H]1CCCc2c(-c3ccc4c(c3)CCC(=O)N4C)cncc21 [Baxdrostat, reference compound]
pIC50 (human CYP11B1): 5.51 | pIC50 (human CYP11B2): 6.90

N#Cc1ccc(-c2cncc3c2OCCN3S(=O)(=O)c2cccnc2)cc1 [O13, 4-(4-(Pyridin-3-ylsulfonyl)-3,4-dihydro-2H-pyrido[4,3-b][1,4]oxazin-8-yl)benzonitrile]
pIC50 (human CYP11B1): 9.51 | pIC50 (human CYP11B2): 9.32

COc1cccc(C(=O)N2CC(C(=O)N3CCOc4c(-c5ccc(C#N)cc5)cncc43)C2)c1 [O76, 4-(4-(1-(3-Methoxybenzoyl)azetidine-3-carbonyl)-3,4-dihydro-2H-pyrido[4,3-b][1,4]oxazin-8-yl)benzonitrile]
pIC50 (human CYP11B1): 6.84 | pIC50 (human CYP11B2): 8.80

N#Cc1ccc(-c2cncc3c2OCCN3S(=O)(=O)C2CN(Cc3cccc(C#N)c3)C2)cc1 [O120, 3-((3-((8-(4-Cyanophenyl)-2,3-dihydro-4H-pyrido[4,3-b][1,4]oxazin-4-yl)sulfonyl)azetidin-1-yl)methyl)benzonitrile]
pIC50 (human CYP11B1): 7.54 | pIC50 (human CYP11B2): 9.52

N#Cc1ccc(-c2cncc3c2SCCN3S(=O)(=O)C2CN(S(=O)(=O)c3ccc(C#N)cc3)C2)cc1 [S76, 4-((3-((8-(4-Cyanophenyl)-2,3-dihydro-4H-pyrido[4,3-b][1,4]thiazin-4-yl)sulfonyl)azetidin-1-yl)sulfonyl)benzonitrile]
pIC50 (human CYP11B1): 7.62 | pIC50 (human CYP11B2): 9.10

N#Cc1ccc(-c2cncc3c2CCN3S(=O)(=O)c2ccc(C(F)(F)F)cc2)cc1 [C4, 4-(1-((4-(Trifluoromethyl)phenyl)sulfonyl)-2,3-dihydro-1H-pyrrolo[2,3-c]pyridin-4-yl)benzonitrile]
pIC50 (human CYP11B1): 9.44 | pIC50 (human CYP11B2): 9.19

Cn1ncc2ccc(-c3cncc4c3SCCN4S(=O)(=O)c3ccc(C#N)cc3)cc21 [S45, 4-((8-(1-Methyl-1H-indazol-6-yl)-2,3-dihydro-4H-pyrido[4,3-b][1,4]thiazin-4-yl)sulfonyl) benzonitrile]
pIC50 (human CYP11B1): 5.84 | pIC50 (human CYP11B2): 7.94

O=C(c1ccc(F)cc1)n1ccc2c(-c3ccc4occc4c3)cncc21 [E33, (4-(Benzofuran-5-yl)-1H-pyrrolo[2,3-c]pyridin-1-yl)(4-fluorophenyl)methanone]
pIC50 (human CYP11B1): 6.17 | pIC50 (human CYP11B2): 7.49

N#Cc1ccc(-c2cncc3c2CCN3C(=O)c2ccc(C(F)(F)F)cc2)cc1 [C22, 4-(1-(4-(Trifluoromethyl)benzoyl)-2,3-dihydro-1H-pyrrolo[2,3-c]pyridin-4-yl)benzonitrile]
pIC50 (human CYP11B1): 6.95 | pIC50 (human CYP11B2): 8.70

N#Cc1ccc(-c2cncc3c2CCN3C(=O)c2cccc([N+](=O)[O-])c2)cc1 [C27, 4-(1-(3-Nitrobenzoyl)-2,3-dihydro-1H-pyrrolo[2,3-c]pyridin-4-yl)benzonitrile]
pIC50 (human CYP11B1): 6.93 | pIC50 (human CYP11B2): 8.64

Cc1cccc(S(=O)(=O)N2CCSc3c(-c4ccc(C#N)cc4)cncc32)c1 [S11, 4-(4-(m-Tolylsulfonyl)-3,4-dihydro-2H-pyrido[4,3-b][1,4]thiazin-8-yl)benzonitrile]
pIC50 (human CYP11B1): 8.68 | pIC50 (human CYP11B2): 9.82

O=S(=O)(c1ccc(O)nc1)N1CCSc2c(-c3cc4cc(Cl)ccc4o3)cncc21 [S54, 5-((8-(5-Chlorobenzofuran-2-yl)-2,3-dihydro-4H-pyrido[4,3-b][1,4]thiazin-4-yl)sulfonyl) pyridin-2-ol]
pIC50 (human CYP11B1): 6.26 | pIC50 (human CYP11B2): 7.80

N#Cc1ccc(-c2cncc3c2SCCN3S(=O)(=O)C2CN(Cc3ccc(F)cc3)C2)cc1 [S82, 4-(4-((1-(4-Fluorobenzyl)azetidin-3-yl)sulfonyl)-3,4-dihydro-2H-pyrido[4,3-b][1,4]thiazin-8-yl)benzonitrile]
pIC50 (human CYP11B1): 8.03 | pIC50 (human CYP11B2): 9.40

Cn1c(=O)c(=O)[nH]c2cncc(-c3ccc(C#N)cc3)c21 [N1, 4-(1-Methyl-2,3-dioxo-1,2,3,4-tetrahydropyrido[3,4-b]pyrazin-8-yl)benzonitrile]
pIC50 (human CYP11B1): 6.39 | pIC50 (human CYP11B2): 6.43

N#Cc1ccc(-c2cncc3c2SCCN3Cc2cccc([N+](=O)[O-])c2)cc1 [S3, 4-(4-(3-Nitrobenzyl)-3,4-dihydro-2H-pyrido[4,3-b][1,4]thiazin-8-yl)benzonitrile]
pIC50 (human CYP11B1): < 5.30 | pIC50 (human CYP11B2): 6.61

N#Cc1ccc(-c2cncc3c2OCCN3S(=O)(=O)c2ccccc2)cc1 [O1, 4-(4-(Phenylsulfonyl)-3,4-dihydro-2H-pyrido[4,3-b][1,4]oxazin-8-yl)benzonitrile]
pIC50 (human CYP11B1): 9.66 | pIC50 (human CYP11B2): 9.80

N#Cc1ccc(-c2cncc3c2CCN3S(=O)(=O)c2cccc(C(F)(F)F)c2)cc1 [C20, 4-(1-((3-[Trifluoromethyl]phenyl)sulfonyl)-2,3-dihydro-1H-pyrrolo[2,3-c]pyridin-4-yl)benzonitrile]
pIC50 (human CYP11B1): 9.40 | pIC50 (human CYP11B2): 8.74

Cc1ccccc1CC(=O)N1CCOc2c(-c3ccc(C#N)cc3)cncc21 [O44, 4-(4-(2-(o-Tolyl)acetyl)-3,4-dihydro-2H-pyrido[4,3-b][1,4]oxazin-8-yl)benzonitrile]
pIC50 (human CYP11B1): 7.08 | pIC50 (human CYP11B2): 8.32

Clc1ccc2oc(-c3cncc4c3OCCN4)cc2c1 [O108, 8-(5-Chlorobenzofuran-2-yl)-3,4-dihydro-2H-pyrido[4,3-b][1,4]oxazine]
pIC50 (human CYP11B1): 6.44 | pIC50 (human CYP11B2): 8.10

N#Cc1ccc(-c2cncc3c2OCCN3S(=O)(=O)c2ccc(C(F)(F)F)cc2)cc1 [O11, 4-(4-((4-(Trifluoromethyl)phenyl)sulfonyl)-3,4-dihydro-2H-pyrido[4,3-b][1,4]oxazin-8-yl)benzonitrile]
pIC50 (human CYP11B1): 8.70 | pIC50 (human CYP11B2): 10.40

N#Cc1ccc(-c2cncc3c2ccn3C(=O)c2ccc(C(F)(F)F)cc2)cc1 [E20, 4-(1-(4-(Trifluoromethyl)benzoyl)-1H-pyrrolo[2,3-c]pyridin-4-yl)benzonitrile]
pIC50 (human CYP11B1): 7.19 | pIC50 (human CYP11B2): 9.10

N#Cc1ccc(-c2cncc3c2SCC(=O)N3)cc1 [S99, 4-(3-Oxo-3,4-dihydro-2H-pyrido[4,3-b][1,4]thiazin-8-yl)benzonitrile]
pIC50 (human CYP11B1): 6.15 | pIC50 (human CYP11B2): 8.16

COc1ccc(S(=O)(=O)N2CCSc3c(-c4ccc(F)cc4)cncc32)cc1 [S30, 8-(4-Fluorophenyl)-4-((4-methoxyphenyl)sulfonyl)-3,4-dihydro-2H-pyrido[4,3-b][1,4]thia zine]
pIC50 (human CYP11B1): 7.72 | pIC50 (human CYP11B2): 9.00

N#Cc1ccc(-c2cncc3c2OCCN3S(=O)(=O)c2cccc(F)c2)cc1 [O3, 4-(4-((3-Fluorophenyl)sulfonyl)-3,4-dihydro-2H-pyrido[4,3-b][1,4]oxazin-8-yl)benzonitrile]
pIC50 (human CYP11B1): 10.00 | pIC50 (human CYP11B2): 9.85

N#Cc1ccc(-c2cncc3c2CCN3C(=O)c2cccc(Cl)c2)cc1 [C39, 4-(1-(3-Chlorobenzoyl)-2,3-dihydro-1H-pyrrolo[2,3-c]pyridin-4-yl)benzonitrile]
pIC50 (human CYP11B1): 6.53 | pIC50 (human CYP11B2): 7.64
